The source of these data is PMC2689075 (Current biology : CB, 2009).

This assay deals with T1, atypical protein kinase C (aPKC) (Drosophila melanogaster, UniProt A1Z9X0).
T1 sequence (A1Z9X0 1-606): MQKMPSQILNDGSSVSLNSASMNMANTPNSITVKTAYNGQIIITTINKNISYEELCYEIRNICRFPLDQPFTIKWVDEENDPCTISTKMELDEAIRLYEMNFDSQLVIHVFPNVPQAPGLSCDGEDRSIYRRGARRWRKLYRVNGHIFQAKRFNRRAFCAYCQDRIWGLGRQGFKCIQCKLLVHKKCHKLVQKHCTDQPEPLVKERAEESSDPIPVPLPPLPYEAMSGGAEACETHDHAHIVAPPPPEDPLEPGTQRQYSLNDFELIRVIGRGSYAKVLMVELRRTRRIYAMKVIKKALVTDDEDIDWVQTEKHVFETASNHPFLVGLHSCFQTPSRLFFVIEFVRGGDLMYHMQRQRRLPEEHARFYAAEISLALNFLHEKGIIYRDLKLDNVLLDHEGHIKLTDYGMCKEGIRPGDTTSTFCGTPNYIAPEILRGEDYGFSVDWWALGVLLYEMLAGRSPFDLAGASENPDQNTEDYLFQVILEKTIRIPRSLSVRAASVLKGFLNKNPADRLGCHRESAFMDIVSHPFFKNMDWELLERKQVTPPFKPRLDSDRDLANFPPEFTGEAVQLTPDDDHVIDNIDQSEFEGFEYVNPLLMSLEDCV
Put plainly: in vitro […] kinase assay with purified recombinant aPKC. Type of assay: biochemical.

In the case of `C[C@@H](N)[C@H]1CC[C@H](C(=O)Nc2ccncc2)CC1` [Y-27632], the IC50 (commonly the point on the concentration scale where inhibition reaches its midpoint) is below 10 µM.
